The nature of data set [1]: The drug is tested on Clostridium spiroforme strain: DSM1552 for biotransformation. The drug concentrations were measured before and after a 12-h incubation by liquid-chromatography-coupled mass spectrometry (LC–MS). Particulars: thomasclavelia spiroformis, 2 µM.
For data set [2] the following is noted: roseburia intestinalis, 12 h, 2 µM.
Description: The drug is tested on Roseburia intestinalis strain: L1-82 for biotransformation. The drug concentrations were measured before and after a 12-h incubation by liquid-chromatography-coupled mass spectrometry (LC–MS)
Data set [3] in a line: The drug is tested on Alistipes indistinctus strain: DSM22520 for biotransformation. The drug concentrations were measured before and after a 12-h incubation by liquid-chromatography-coupled mass spectrometry (LC–MS). Conditions: 2 µM.
The conditions of data set [4]: bacteroides stercoris, 12 h, 2 µM.
Description: The drug is tested on Bacteroides stercoris strain: ATCC43183 for biotransformation. The drug concentrations were measured before and after a 12-h incubation by liquid-chromatography-coupled mass spectrometry (LC–MS)
A short description of data set [5]: The drug is tested on Collinsella intestinalis strain: DSM13280 for biotransformation. The drug concentrations were measured before and after a 12-h incubation by liquid-chromatography-coupled mass spectrometry (LC–MS). Particulars: 2 µM.
The conditions of data set [6]: bacteroides fragilis, 12 h, 2 µM.
Description: The drug is tested on Bacteroides fragilis strain: NCTC 9343 for biotransformation. The drug concentrations were measured before and after a 12-h incubation by liquid-chromatography-coupled mass spectrometry (LC–MS)
The nature of data set [7]: The drug is tested on Coprococcus comes strain: ATCC27758 for biotransformation. The drug concentrations were measured before and after a 12-h incubation by liquid-chromatography-coupled mass spectrometry (LC–MS). Format: ADME. Conditions: 2 µM. Set-up: dose 2 uM, timepoint 0 vs 12 hours.
The conditions of data set [8]: enterocloster bolteae, 12 h, 2 µM.
Description: The drug is tested on Clostridium bolteae strain: ATCCBAA-613 for biotransformation. The drug concentrations were measured before and after a 12-h incubation by liquid-chromatography-coupled mass spectrometry (LC–MS)

`O=P1(N(CCCl)CCCl)NCCCO1` (stereo not given) [CYCLOPHOSPHAMIDE ANHYDROUS]: the “Bacterial Biotransformation” value in data set [1] is “Compound NOT metabolized”; in data set [2] it was “Compound NOT metabolized”; in data set [3], “Compound metabolized”; in data set [4], “Compound NOT metabolized”; in data set [5], “Compound NOT metabolized”; in data set [6], “Compound NOT metabolized”.

For the molecule `CC(C)(Oc1ccc(CCNC(=O)c2ccc(Cl)cc2)cc1)C(=O)O` [BEZAFIBRATE], the “Bacterial Biotransformation” value in data set [2] is “Compound metabolized”; in data set [3], “Compound NOT metabolized”; in data set [4], “Compound metabolized”; in data set [7] it was “Compound metabolized”; in data set [8], “Compound metabolized”; in data set [5], “Compound metabolized”. For the same molecule, the “Bacterial Biotransformation” value in data set [6] is “Compound metabolized”.

Consider `CN1CCc2cccc3c2[C@H]1Cc1ccc(O)c(O)c1-3` [APOMORPHINE], for which the “Bacterial Biotransformation” value in data set [2], in data set [3], in data set [4], in data set [7], in data set [8] and in data set [5] was “Compound NOT metabolized” each time. Also, in data set [6], the “Bacterial Biotransformation” value was “Compound NOT metabolized”.

As for `CC(C)(C)NCC(O)c1cc(Cl)c(N)c(Cl)c1` (stereo not given) [CLENBUTEROL], the “Bacterial Biotransformation” value in data set [2], in data set [3], in data set [4], in data set [7], in data set [8] and in data set [5] was “Compound NOT metabolized” in each case. In addition, the “Bacterial Biotransformation” value in data set [6] is “Compound NOT metabolized”.

With `CNC(=C[N+](=O)[O-])NCCSCc1csc(CN(C)C)n1` [NIZATIDINE], the “Bacterial Biotransformation” value is given as “Compound NOT metabolized” in data set [2]; “Compound metabolized” in data set [3]; “Compound NOT metabolized” in data set [4]; “Compound NOT metabolized” in data set [7]; “Compound metabolized” in data set [8]; “Compound metabolized” in data set [5]. Also, the “Bacterial Biotransformation” value in data set [6] is on record as “Compound metabolized”.

Consider `Cc1nc2n(c(=O)c1CCN1CCC(c3noc4cc(F)ccc34)CC1)CCCC2` [RISPERIDONE], for which the “Bacterial Biotransformation” value in data set [2] is “Compound metabolized”; in data set [3] it was “Compound metabolized”; in data set [4], “Compound NOT metabolized”; in data set [7] it was “Compound metabolized”; in data set [8], “Compound NOT metabolized”; in data set [5], “Compound metabolized”. The “Bacterial Biotransformation” value in data set [6] is given as “Compound NOT metabolized”.

Consider `Cc1nc2n(c(=O)c1CCN1CCC(c3noc4cc(F)ccc34)CC1)CCCC2O` (stereo not given) [PALIPERIDONE], for which the “Bacterial Biotransformation” value in data set [2] is recorded as “Compound metabolized”; in data set [3], “Compound metabolized”; in data set [4], “Compound metabolized”; in data set [7], “Compound metabolized”; in data set [8], “Compound metabolized”; in data set [5], “Compound NOT metabolized”. For the same molecule, the “Bacterial Biotransformation” value in data set [6] is on record as “Compound metabolized”.

Consider `COc1ccc2c(c1OC)C(=O)O[C@@H]2[C@H]1c2c(cc3c(c2OC)OCO3)CCN1C` [NOSCAPINE], for which the “Bacterial Biotransformation” value in data set [2], in data set [3], in data set [4], in data set [7], in data set [8] and in data set [5] was “Compound metabolized” throughout. Moreover, the “Bacterial Biotransformation” value in data set [6] is listed as “Compound metabolized”.

Turning to `COC(=O)[C@H](c1ccccc1Cl)N1CCc2sccc2C1.O=S(=O)(O)O` [CLOPIDOGREL BISULFATE], the “Bacterial Biotransformation” value in data set [1] is “Compound NOT metabolized”; in data set [2], “Compound NOT metabolized”; in data set [3] it was “Compound NOT metabolized”; in data set [4], “Compound metabolized”; in data set [7], “Compound NOT metabolized”; in data set [8] it was “Compound NOT metabolized”. Besides, the “Bacterial Biotransformation” value in data set [5] was “Compound NOT metabolized”; in data set [6] it was “Compound metabolized”.

For the molecule `CN1CCC(=C2c3ccccc3CCc3cccnc32)CC1.O=C(O)/C=C\C(=O)O.O=C(O)/C=C\C(=O)O` [AZATADINE MALEATE], the “Bacterial Biotransformation” value in data set [2], in data set [3], in data set [4], in data set [7], in data set [8] and in data set [5] was “Compound NOT metabolized” throughout. The “Bacterial Biotransformation” value in data set [6] was “Compound NOT metabolized”.

As to `CCOc1ccc2nc(S(N)(=O)=O)sc2c1` [ETHOXZOLAMIDE], the “Bacterial Biotransformation” value in data set [2], in data set [3], in data set [4], in data set [7], in data set [8] and in data set [5] was “Compound metabolized” each time. The “Bacterial Biotransformation” value in data set [6] was “Compound metabolized”.

Regarding `CC(C)NCC(O)COc1ccc(COCCOC(C)C)cc1.CC(C)NCC(O)COc1ccc(COCCOC(C)C)cc1.O=C(O)/C=C/C(=O)O` (stereo not given) [BISOPROLOL FUMARATE], the “Bacterial Biotransformation” value in data set [2], in data set [3], in data set [4], in data set [7], in data set [8] and in data set [5] was “Compound NOT metabolized” each time. Moreover, the “Bacterial Biotransformation” value in data set [6] is “Compound NOT metabolized”.

As to `CC[C@@H](CO)NC(=O)[C@@H]1C=C2c3cccc4c3c(cn4C)C[C@H]2N(C)C1.O=C(O)/C=C\C(=O)O` [METHYSERGIDE MALEATE], the “Bacterial Biotransformation” value in data set [2] is on record as “Compound metabolized”; in data set [3], “Compound metabolized”; in data set [4], “Compound metabolized”; in data set [7], “Compound metabolized”; in data set [8] it was “Compound metabolized”; in data set [5], “Compound NOT metabolized”. In addition, the “Bacterial Biotransformation” value in data set [6] is “Compound metabolized”.

Turning to `CCOC(=O)[C@H](CCc1ccccc1)N[C@H]1CCc2ccccc2N(CC(=O)O)C1=O` [BENAZEPRIL], the “Bacterial Biotransformation” value in data set [2] was “Compound metabolized”; in data set [3], “Compound NOT metabolized”; in data set [4], “Compound metabolized”; in data set [7], “Compound NOT metabolized”; in data set [8] it was “Compound NOT metabolized”; in data set [5] it was “Compound NOT metabolized”. In addition, the “Bacterial Biotransformation” value in data set [6] is reported as “Compound NOT metabolized”.

`CC[C@H](C)C(=O)O[C@H]1C[C@@H](C)C=C2C=C[C@H](C)[C@H](CC[C@@H]3C[C@@H](O)CC(=O)O3)[C@H]21` [LOVASTATIN]: the “Bacterial Biotransformation” value in data set [2], in data set [3], in data set [4], in data set [7], in data set [8] and in data set [5] was “Compound NOT metabolized” throughout. Also, in data set [6], the “Bacterial Biotransformation” value is given as “Compound metabolized”.

In the case of `CCCC(C)(COC(N)=O)COC(=O)NC(C)C` (stereo not given) [CARISOPRODOL], the “Bacterial Biotransformation” value in data set [2] is listed as “Compound metabolized”; in data set [3] it was “Compound NOT metabolized”; in data set [4], “Compound metabolized”; in data set [7] it was “Compound NOT metabolized”; in data set [8], “Compound NOT metabolized”; in data set [5], “Compound NOT metabolized”. The “Bacterial Biotransformation” value in data set [6] is “Compound metabolized”.

Consider `CC(C)NCC(O)COc1ccc(CC(N)=O)cc1` (stereo not given) [ATENOLOL], for which the “Bacterial Biotransformation” value in data set [1], in data set [2], in data set [7], in data set [8], in data set [5] and in data set [6] was “Compound NOT metabolized” each time.

For the molecule `COc1c(C)c2c(c(O)c1C/C=C(\C)CCC(=O)OCCN1CCOCC1)C(=O)OC2` [MYCOPHENOLATE MOFETIL], the “Bacterial Biotransformation” value in data set [2], in data set [3], in data set [4], in data set [7], in data set [8] and in data set [5] was “Compound metabolized” each time. For the same molecule, the “Bacterial Biotransformation” value in data set [6] is “Compound metabolized”.

For the origin of these results see ChEMBL document CHEMBL5303573, “Mapping human microbiome drug metabolism by gut bacteria and their genes” (Nature, 2019).
